Experimental data reported in patent publication US11851681B2, “Cell preparation method” (KYOTO PREFECTURAL PUBLIC UNIVERSITY CORPORATION, priority 2015, dated 2023).
“Also recorded” adds a separate entry of the source.

How the values were obtained:
Format in all cases: cell-based
[1] = system: human dermal fibroblasts; HDFs; test: Real-time RT-PCR of Sox9 and Aggrican in cartilage induction medium, Example 8; settings: ALK5 inhibitor II 2 μM, Cyclic Pifithrin-α 5 μM, day 18, FIG. 8
Procedure: The concentrations of the compounds are as follows: • Cyclic Pifithrin-α: 5 μM • ALK5 inhibitor II: 2 μM.

[2] = system: Human normal skin-derived fibroblasts (HDFs); test: Real-time RT-PCR of UCP1, four inhibitors, Example 39; settings: for conversion of fibroblast to brown adipocyte, UCP1 mRNA: 4 μM, 8 μM, 12 μM or 16 μM in adipocyte induction medium Day 1 to Day 8, then compound-free to day 14, FIG. 43
Procedure: The addition concentration of the compound was 4 μM, 8 μM, 12 μM or 16 μM. […] Thereafter, in Day 9-Day 14, culturing was performed in a medium free of ALK5 inhibitor II, LY2157299, SB431542, D4476.

[3] = system: Human normal skin-derived fibroblasts (HDFs); test: Immunostaining of UCP1, four inhibitors, Example 40; settings: LY2157299 8 μM, SB431542 4 μM, D4476 4 μM, Day 1 to Day 8, day 14, FIG. 44; for conversion of fibroblast to brown adipocyte, UCP1 protein: ALK5 inhibitor II 4 μM; for staining with anti-UCP1 antibody: groups 3-6: ALK5 inhibitor II 4 μM
Procedure: Human normal skin-derived fibroblasts (HDFs) were suspended in a general medium (DMEM added with 10% FBS). […] The adipocyte induction medium is DMEM added with 1 nM T3, 1 μM Rosiglitazone, 0.5 mM 3-isobutyl-1-methylxanthine (IBMX), 0.5 μM dexamethasone, 1 μg/mL Insulin and 10% FBS. Once every 2 days, the culture medium was exchanged with a fresh one, and culturing was performed from Day 1 to Day 8. Thereafter, from Day 9 to Day 14, the cells were cultured in an adipocyte induction medium free of ALK5 inhibitor II, LY2157299, SB431542, D4476. On day 14, the culture medium was removed by suction from each well, and washed with PBS(−). After fixing with 4% para-formaldehyde, the well was washed with PBS (−), Permanent wave Buffer (0.2% Triton-X addition PBS) was added and the well was incubated for 15 min. After washing 3 times with PBS(−), Blocking One was added, and the mixture was incubated at room temperature for 60 min. Anti-UCP-1 antibody (RD MAB6158) was added and the mixture was reacted for 2 hrs at room temperature, and washed 3 times with Wash buffer. CF488-conjugated anti-mouse Ig antibody (Biotum 20014) was added and the mixture was reacted for 2 hrs at room temperature, and washed 3 times with PBS(−). After nuclear staining with SlowFade Gold antifade reagent with DAPI manufactured by Lifetechnology, the cells were photographed with a fluorescence microscope at ×100 magnification.

[4] = system: Human normal skin-derived fibroblasts (HDFs); test: Real-time RT-PCR of UCP1, CIDEA, KCNK3, Example 41; settings: ALK5 inhibitor II or LY2157299 (8 μM), Day 1 to Day 8; day 14; FIG. 45
Procedure: Human normal skin-derived fibroblasts (HDFs) were suspended in a general medium (DMEM added with 10% FBS). […] The adipocyte induction medium is DMEM added with 1 nM T3, 1 μM Rosiglitazone, 0.5 mM 3-isobutyl-1-methylxanthine (IBMX), 0.5 μM dexamethasone, 1 μg/mL Insulin and 10% FBS. Once every 2 days, the culture medium was exchanged with a fresh one, and culturing was performed from Day 1 to Day 8. Thereafter, from Day 9 to Day 14, the cells were cultured in an adipocyte induction medium free of ALK5 inhibitor II or LY2157299. On day 14, the culture medium was removed by suction from each well, washed with PBS(−) and total RNA was extracted from the cells by using RNA easy Mini Kit manufactured by Qiagen. cDNA was synthesized from the RNA by using Rever Tra Ace qPCR RT Master Mix. This cDNA was admixed with Real-time PCR Master Mix, primers specific to UCP-1 gene, CIDEA gene, KCNK3 gene or β actin gene and Taqman probe. qRT-PCR was performed using AB7300 Real-time PCR system. The mRNA level of UCP1 gene was quantified as a ratio to β-actin gene mRNA, and calculated with the value of fibroblast cultured in the general medium as 1.

[5] = system: Human Epidermal Keratinocyte; NHEK (AD); test: Real-time RT-PCR of UCP1 and CIDEA, keratinocyte to brown adipocyte, Example 43; settings: K-adipocyte induction medium; ALK5 inhibitor II 4 μM or LY2157299 8 μM, Day 1 to Day 8; day 14; FIG. 47
Procedure: Normal human epidermal keratinocyte (Human Epidermal Keratinocyte; NHEK (AD)) were suspended in a serum-free liquid medium for normal human epidermal keratinocyte proliferation (HuMedia-KG2; manufactured by Kurabo).
The K-adipocyte induction medium is HuMedia-KG2 added with 1 nM T3, 1 μM Rosiglitazone, 0.5 mM 3-isobutyl-1-methylxanthine (IBMX), 0.5 μM dexamethasone, and 1 μg/mL Insulin.
Once every 2 days, the culture medium was exchanged with a fresh one, and culturing was performed from Day 1 to Day 8. Thereafter, from Day 9 to Day 14, the cells were cultured in a medium free of ALK5 inhibitor II or LY2157299. On day 14, the culture medium was removed by suction from each well, washed with PBS(−) and total RNA was extracted from the cells by using RNA easy Mini Kit manufactured by Qiagen. cDNA was synthesized from the RNA by using Rever Tra Ace qPCR RT Master Mix. This cDNA was admixed with Real-time PCR Master Mix, primers specific to UCP-1 gene, CIDEA gene or β actin gene and Taqman probe. qRT-PCR was performed using AB7300 Real-time PCR system. The mRNA level of UCP1 gene and CIDEA gene was quantified as a ratio to β-actin gene mRNA level, and calculated with the value of fibroblast cultured in the general medium as 1.

[6] = system: human dermal fibroblasts; HDFs; test: Bodipy staining in WA medium, four inhibitors, Example 48; settings: day 12, FIG. 52; for lipid droplets stained with Bodipy, inhibitor alone: WA medium added with 16 μM compound alone; for lipid droplets stained with Bodipy / conversion to white adipocyte, inhibitor and Rosiglitazone: WA medium added with 16 μM compound and 1 μM Rosiglitazone
[7] = system: human dermal fibroblasts; HDFs; test: Bodipy staining quantification in WA medium, four inhibitors, Example 49; settings: 16 μM compound and 1 μM Rosiglitazone, day 12, FIG. 53
[8] = system: human dermal fibroblasts; HDFs; test: Real-time PCR of AdipoQ, FABP4, PPAR-γ, four inhibitors with Rosiglitazone, Example 50; settings: WA medium added with 1 μM Rosiglitazone and 16 μM compound; day 12
Description: On day 12, RNA was recovered from the cells and, in the same manner as in Example 47, mRNA of AdipoQ, FABP4 (mature adipocyte marker), and PPAR-γ (preadipocyte marker) was quantified.

[9] = system: human dermal fibroblasts; HDFs; test: Alizarin Red S staining (staining figure), fibroblast to osteoblast, Example 1; settings: each compound 2 μM in calcification induction medium; day 24; FIG. 1
Procedure: It was washed 3 times with sterile distilled water. […] The well after staining was washed with sterile distilled water and photographed.
The concentrations of the compounds are as follows: • D4476: 2 μM • ALK5 inhibitor II: 2 μM • SB431542: 2 μM.

[10] = system: human dermal fibroblasts; HDFs; test: Alizarin Red S staining (absorbance OD 550 nm), Example 2; settings: each compound 2 μM in calcification induction medium; day 24; FIG. 2
Procedure: (§1) The concentrations of the compounds are as follows: • D4476: 2 μM • SB431542: 2 μM • ALK5 inhibitor II: 2 μM.

[11] = system: human dermal fibroblasts; HDFs; test: Real-time RT-PCR of Osteocalcin and Alkaline Phosphatase, Example 3; settings: each compound 2 μM in calcification induction medium; day 24; FIG. 3
Procedure: as §1

[12] = system: human dermal fibroblasts; HDFs; test: Oil Red O staining, fibroblast to brown adipocyte, Example 12; settings: compound 2 μM in addition to T3 1 nM and Rosiglitazone 1 μM, adipocyte induction medium; day 14; FIG. 12
Procedure: (§2) The concentrations of the additives are as follows: • T3: 1 nM • Rosiglitazone: 1 μM • D4476: 2 μM • Pifithrin alpha [p53 inhibitor]: 5 μM • SB431542: 2 μM • ALK5 Inhibitor II: 2 μM.
Then, the cells were washed with sterile distilled water and photographed with a phase contrast microscope at ×100 magnification.

[13] = system: human dermal fibroblasts; HDFs; test: Real-time RT-PCR of CIDEA, Example 13; settings: compound 2 μM in addition to T3 1 nM and Rosiglitazone 1 μM, adipocyte induction medium; day 14; FIG. 13
Procedure: as §2

[14] = system: human dermal fibroblasts; HDFs; test: Real-time RT-PCR of AdipoQ, Example 14; settings: D4476, SB431542, ALK5 Inhibitor II 2 μM, PD0325901 1 μM, in addition to T3 and Rosiglitazone; day 14; FIG. 14
Procedure: The concentrations of the additives are as follows: • T3: 1 nM • Rosiglitazone: 1 μM • D4476: 2 μM. • Pifithrin alpha [p53 inhibitor]: 5 μM • PD0325901: 1 μM • SB431542: 2 μM • ALK5 Inhibitor II: 2 μM.

[15] = system: human dermal fibroblasts; HDFs; test: BODIPY staining and fluorescence intensity, Example 15; settings: compound 2 μM in addition to T3 1 nM and Rosiglitazone 1 μM; day 14; FIG. 15A, 15B
Procedure: The concentrations of the additives are as follows: • T3: 1 nM • Rosiglitazone: 1 μM • D4476: 2 μM • SB431541: 2 μM • ALK5 inhibitor II: 2 μM.
The cells were fixed with 4% para-formaldehyde, washed with PBS(−), reacted for 5 min with BODIPY 493/503 (Invitrogen)/PBS solution at room temperature and washed 3 times with PBS. The cells were photographed with a fluorescence microscope at ×200 magnification and the fluorescence intensity was measured.

[16] = system: human dermal fibroblasts; HDFs; test: Alizarin Red S staining and absorbance, compound panel, Examples 29-30; settings: calcification induction medium; compounds 2 μM (Pifthrin-α 5 μM, DZnep 50 nM); day 28; FIG. 33, 34
Procedure: The compounds added to the medium and the concentrations thereof are as follows. • I-BET151: 2 μM • Pifthrin-α: 5 μM • PD0325901: 2 μM • 2-Me-5HT: 2 μM • CX4945: 2 μM • CHIR99021: 2 μM • Forskolin: 2 μM • DZnep: 50 nM • D4476: 2 μM • SB431542: 2 μM • ALK5 i II: 2 μM.
In the experiment of Example 29, the solution after staining with the Alizarin Red S staining solution was collected in a 96 well plate and the absorbance (OD 550 nm) was measured with an absorption spectrometer.

[17] = system: Human normal skin-derived fibroblasts (HDFs); test: Alizarin Red S and ALP staining, absorbance, TGF-β pathway inhibitor panel, Examples 31-32; settings: description, conditions not given
Procedure: On day 21, the culture medium was removed from a part of the well, washed with PBS(-), and fixed with a fixative. It was washed 3 times with sterile distilled water. […] In the experiment of Example 31, the solution after staining with the Alizarin Red S staining solution was collected in a 96 well plate and the absorbance (OD 550 nm) was measured with an absorption spectrometer.

Structure (SMILES) | conversion of fibroblast to chondrocyte, Sox9 and Aggrican mRNA [1] | conversion of fibroblast to brown adipocyte, UCP1 mRNA [2] | efficiency in converting fibroblast to brown adipocyte (summary statement) ([2]; description, conditions not given) | conversion of fibroblast to brown adipocyte, UCP1 protein [3] | staining with anti-UCP1 antibody [3] | conversion of fibroblast to brown adipocyte, UCP1, CIDEA and KCNK3 mRNA [4] | conversion of epidermal keratinocyte to brown adipocyte, UCP1 and CIDEA mRNA [5] | lipid droplets stained with Bodipy, inhibitor alone [6] | lipid droplets stained with Bodipy / conversion to white adipocyte, inhibitor and Rosiglitazone [6] | fat accumulation (BODIPY) / conversion to white adipocyte, co-addition of Rosiglitazone [7] | conversion of human fibroblast to white adipocyte (mRNA markers) [8] | conversion of human fibroblast to osteoblast, Alizarin Red S staining (staining figure) [9] | conversion of human fibroblast to osteoblast, Alizarin Red S staining (absorbance OD 550 nm) [10] | conversion of human fibroblast to osteoblast, Osteocalcin and Alkaline Phosphatase mRNA [11] | conversion of fibroblast to brown adipocyte, Oil Red O staining [12] | conversion of fibroblast to brown adipocytes, CIDEA mRNA [13] | conversion of fibroblast to brown adipocytes, AdipoQ mRNA [14] | conversion of fibroblast to brown adipocytes, BODIPY staining and fluorescence intensity [15] | conversion from fibroblast to osteoblast, Alizarin Red S staining and absorbance [16] | efficiency in converting fibroblast to osteoblast (summary statement) [17]
Cc1ccc(-c2cn3c4c(sc3n2)CCCC4)cc1 [Cyclic Pifithrin-α] | does not promote conversion of fibroblast to chondrocyte |  |  |  |  |  |  |  |  |  |  |  |  |  |  |  |  |  |  | 
Cc1cccc(-c2nn3c(c2-c2ccnc4ccc(C(N)=O)cc24)CCC3)n1 [LY2157299, 4-[5,6-dihydro-2-(6-methyl-2-pyridinyl)-4H-pyrrolo[1,2-b]pyrazol-3-yl]-6-quinolinecarboxamide] |  | converted fibroblast to brown adipocyte strongly expressing UCP1 gene; also recorded: secondly | highly efficient in converting fibroblast to brown adipocyte | converted fibroblast to brown adipocyte expressing UCP1 protein; also recorded: secondly | many cells were stained with anti-UCP1 antibody; also recorded: the second highest | converted fibroblast to brown adipocyte expressing UCP1 gene, CIDEA gene and KCNK3 gene | converted normal human epidermal keratinocyte to brown adipocyte expressing UCP1 gene and CIDEA gene | only a few cells contained lipid droplets stained with Bodipy | many cells were stained | more strongly induced fat accumulation than by the addition of Rosiglitazone alone | converted human fibroblast to white adipocyte |  |  |  |  |  |  |  |  | 
NC(=O)c1ccc(-c2nc(-c3ccc4c(c3)OCO4)c(-c3ccccn3)[nH]2)cc1 [SB431542, 4-[4-(1,3-Benzodioxol-5-yl)-5-(pyridin-2-yl)-1H-imidazol-2-yl]benzamide] |  | converted fibroblast to brown adipocyte strongly expressing UCP1 gene |  | converted fibroblast to brown adipocyte expressing UCP1 protein | many cells were stained with anti-UCP1 antibody |  |  | only a few cells contained lipid droplets stained with Bodipy | many cells were stained | more strongly induced fat accumulation than by the addition of Rosiglitazone alone | converted human fibroblast to white adipocyte | converted to osteoblast having calcified is bone matrix production ability | converted to osteoblast having calcified bone matrix production ability | converted to osteoblast expressing osteocalcin and alkaline phosphatase gene | converted fibroblast to brown adipocyte | converted fibroblast to brown adipocytes expressing mRNA of CIDEA gene | converted fibroblast to brown adipocytes expressing mRNA of AdipoQ gene | converted fibroblast to brown adipocytes having lipid droplets stained with BODIPY | induce conversion from fibroblast to osteoblast | highly efficient in converting fibroblast to osteoblast
